In US20220023317A1, “PREVENTING OR MITIGATING CHEMOTHERAPY INDUCED ALOPECIA USING VITAMIN D” (Berg LLC, priority 2013, published 2022):

Key:
[1] = system: Long Evans and Sprague Dawley rats; details: CTX 37.5 mg/kg once i.p.
Description: Specifically, Long Evans and Sprague Dawley rats with pups were purchased from Harlan Laboratories, Inc. They were housed and fed according to applicable animal handling rules and regulations. Pups were allowed to acclimate for 48 hours prior to the start of experiments. […] Rats were isolated from their littermates and mother for 6-hour periods of time. Subsequently, the treated area was cleaned with soap and water and pups were returned to their litters. On day 13, rats either received etoposide (1.5 mg/kg daily for 3 days) or cyclophosphamide (CTX) (37.5 mg/kg once) or combination cyclophosphamide (35 mg/kg once) and doxorubicin (2.5 mg/kg daily for 3 days). All chemotherapies were purchased from Sigma and were given intraperitoneally (i.p.) in a total volume of 0.1 mL. Alopecia was recorded 10 days after the last dose of chemotherapy.

Long Evans Rats = experiment: Alopecia in chloroleukemic Long Evans rats receiving multi-course chemotherapy; assay type: in vivo, rat; details: CTX
Description: Animals were then randomized in four groups.
Treatments were started on day 6 after birth.
Unused preparations were disposed of.

MIAC51 = experiment: Cure / survival rate of chloroleukemic rats after chemotherapy; assay type: in vivo, rat; details: CTX, after two rounds of chemotherapy
Description: On day 5 after birth all rats received 1×105 MIAC51 intraperitoneally in 0.1 mL of serum free (SF) RPMI. MIAC51 were cultured in RPMI 1640 supplemented with L-glutamine and 10% fetal bovine serum at […] in a 5% CO2, 100% humidity incubator. Cells were grown to 50% confluency (1.5×106 mL) collected in 50 mL conical tubes, centrifuged at 600 g for 10 minutes at room temperature and resuspended in SF-RPMI at a concentration of 1×10^6/mL prior to injection.

O=P1(N(CCCl)CCCl)NCCCO1 (stereo not drawn) [CTX]
alopecia in control rats that received cyclophosphamide [1]: totally alopecic
extent of alopecia (grade) (Long Evans Rats; first round of chemotherapy, all rats): +4
rats with alopecia grade 4+ (number) (Long Evans Rats; first round, 4+ = 75-100% alopecia, of 40): 40
rats with alopecia grade 4+ (number) (Long Evans Rats; second round, of 8): 8
% cured / survival rate (MIAC51): 20%
Cured (number of rats) (MIAC51; of 40): 8
